Measured values taken from patent US20050222178A1, “Process” (priority 2002, published 2005).

Assay: relative stability of the polymorphic forms of Compound A
Format: physicochemical

Compound | stability relative to the other polymorph (at ambient temperatures, for example 15-20° C.) | stability relative to the other polymorph (at elevated temperatures, for example temperatures in excess of 70° C.)
CC(C)(C)c1nnc([C@H]2O[C@@H](n3cnc4c(Nc5ccc(Cl)cc5F)ncnc43)[C@H](O)[C@@H]2O)o1 [Polymorph I, (2S,3S,4R,5R)-2-(5-tert-butyl-[1,3,4]-oxadiazol-2-yl)-5-[6-(4-chloro-2-fluorophenylamino)-9H-purin-9-yl]-tetrahydrofuran-3,4-diol] | enhanced stability over Polymorph II | 
CC(C)(C)c1nnc([C@H]2O[C@@H](n3cnc4c(Nc5ccc(Cl)cc5F)ncnc43)[C@H](O)[C@@H]2O)o1 [Polymorph II, (2S,3S,4R,5R)-2-(5-tert-butyl-[1,3,4]-oxadiazol-2-yl)-5-[6-(4-chloro-2-fluorophenylamino)-9H-purin-9-yl]-tetrahydrofuran-3,4-diol] |  | enhanced stability over Polymorph I
